The values that follow come from ChEMBL document CHEMBL1139592, “Quantitative structure-activity relationship studies for antioxidant hydroxybenzalacetones by quantum chemical- and 3-D-QSAR(CoMFA) analyses” (Bioorg Med Chem Lett, 2005).

The structures appear in SMILES notation.

This experiment is filed under the species Oryctolagus cuniculus. The experiment can be described thus: Inhibitory concentration against peroxidation of rabbits red blood cell (RBC) membrane ghost induced by gamma-ray irradiation. The format is functional. The conditions noted are these: light or radiation study.

Regarding `CC(=O)/C=C/c1cc(C(C)(C)C)ccc1O`, the IC50 (in general, the concentration that inhibits the measured activity by half) was 8 µM.
Then `CC(=O)/C=C/c1cccc(F)c1O`, with 51.2 µM.
On to `COc1ccc(O)c(/C=C/C(C)=O)c1`, for which the IC50 is 3.98 µM.
Take `CC(=O)/C=C/c1cc(C)ccc1O`: the IC50 was 8 µM.
`CCOc1cccc(/C=C/C(C)=O)c1O` gave an IC50 of 3.31 µM.
As for `COc1cc(/C=C/C(C)=O)cc(OC)c1O`, the figure is 2.52 µM; as for `CC(=O)/C=C/c1cc(Cl)ccc1O`, 60.3 µM.
As to `CC(=O)/C=C/c1cc(O)ccc1O`, the midpoint of inhibition, the IC50, lay at 1.43 µM.
`COc1ccc(/C=C/C(C)=O)c(O)c1`: half-maximal inhibition (IC50) was put at 35.5 µM.
`CC(=O)/C=C/c1cccc(C(C)(C)C)c1O`: the IC50 was 2.19 µM.
`CC(=O)/C=C/c1ccccc1O` gave an IC50 of 37.8 µM.
Compound `CC(=O)/C=C/c1cccc(O)c1O` showed an IC50 of 1.96 µM.
On to `CC(=O)/C=C/c1cc(C)c(O)c(C)c1`, for which the IC50 is 6.32 µM.
In the case of `COc1cccc(/C=C/C(C)=O)c1O`, the IC50 is 3.25 µM.
In turn, `CC(=O)/C=C/c1cccc(C)c1O` showed an IC50 of 3.63 µM.
Turning to `CC(=O)/C=C/c1ccc(O)c(O)c1`, the IC50 is 2.34 µM.
Then `CC(=O)/C=C/c1ccc(O)cc1`, with 66.1 µM; and `COc1cc(/C=C/C(C)=O)ccc1O` [DEHYDROZINGERONE], with 11.5 µM.
